Experimental data published in patent US7569577B2, “Quinazoline derivatives as tyrosine kinase inhibitors” (Astrazeneca AB, priority 2003, dated 2009).

Experiments:
EGFR tyrosine kinase = target: T1, EGFR tyrosine kinase (Homo sapiens, UniProt P00533); experiment: Protein tyrosine kinase phosphorylation assay, Test (a); format: biochemical; conditions: ATP at Km concentration; read-out: IC50 (nM) Test (a) (Inhibition of EGFR tyrosine kinase protein phosphorylation)
T1 construct: Recombinant intracellular fragments of EGFR, erbB2 and erbB4; made in house; host or cells: baculovirus/Sf21 insect cells (cleared lysate used)
Description: This test measures the ability of a test compound to inhibit the phosphorylation of a tyrosine containing polypeptide substrate by EGFR, erbB2 or erbB4 tyrosine kinase enzyme.
Recombinant intracellular fragments of EGFR, erbB2 and erbB4 (accession numbers X00588, X03363 and L07868 respectively) were cloned and expressed in the baculovirus/Sf21 system. Lysates were prepared from these cells by treatment with ice-cold lysis buffer (20 mM N-2-hydroxyethylpiperizine-N′-2-ethanesulfonic acid (HEPES) pH 7.5, 150 mM NaCl, 10% glycerol, 1% Triton X-100, 1.5 mM MgCl2, 1 mM ethylene glycol-bis(β-aminoethyl ether) N′,N′,N′,N′-tetraacetic acid (EGTA), plus protease inhibitors and then cleared by centrifugation.
Constitutive kinase activity of these recombinant proteins was determined by their ability to phosphorylate a synthetic peptide (made up of a random co-polymer of Glutamic Acid, Alanine and Tyrosine in the ratio of 6:3:1). Specifically, Maxisorb™ 96-well immunoplates were coated with synthetic peptide (0.2 μg of peptide in a 200 μl phosphate buffered saline (PBS) solution and incubated at 4° C. overnight). Plates were washed in 50 mM HEPES pH 7.4 at room temperature to remove any excess unbound synthetic peptide. EGFR or erbB2 activities were assessed by incubation in peptide coated plates for 20 minutes at room temperature in 100 mM HEPES pH 7.4 at room temperature, adenosine trisphosphate (ATP) at Km concentration for the respective enzyme, 10 mM MnCl2, 0.1 mM Na3VO4, 0.2 mM DL-dithiothreitol (DTT), 0.1% Triton X-100 with test compound in DMSO (final concentration of 2.5%). Reactions were terminated by the removal of the liquid components of the assay followed by washing of the plates with PBS-T (phosphate buffered saline with 0.5% Tween 20).
The immobilised phospho-peptide product of the reaction was detected by immunological methods. Firstly, plates were incubated for 90 minutes at room temperature with anti-phosphotyrosine primary antibodies that were raised in the mouse (4G10 from Upstate Biotechnology). Following extensive washing, plates were treated with Horseradish Peroxidase (HRP) conjugated sheep anti-mouse secondary antibody (NXA931 from Amersham) for 60 minutes at room temperature. After further washing, HRP activity in each well of the plate was measured colorimetrically using 22′-Azino-di-[3-ethylbenzthiazoline sulfonate (6)] diammonium salt crystals (ABTS™ from Roche) as a substrate.
Quantification of colour development and thus enzyme activity was achieved by the measurement of absorbance at 405 nm on a Molecular Devices ThermoMax microplate reader. Kinase inhibition for a given compound was expressed as an IC50 value. […] The range of phosphorylation was calculated from the positive (vehicle plus ATP) and negative (vehicle minus ATP) control values.

KB cells = experiment: EGFR driven KB cell proliferation assay, Test (b); format: cell-based; conditions: Homo sapiens, 96 h, EGF 1 ng/ml, 4 days, MTT
Description: This assay measures the ability of a test compound to inhibit the proliferation of KB cells (human naso-pharangeal carcinoma obtained from the American Type Culture Collection (ATCC)).
KB cells were cultured in Dulbecco's modified Eagle's medium (DMEM) containing 10% foetal calf serum, 2 mM glutamine and non-essential amino acids at 37° C. in a 7.5% CO2 air incubator. Cells were harvested from the stock flasks using Trypsin/ethylaminediaminetetraacetic acid (EDTA). Cell density was measured using a haemocytometer and viability was calculated using trypan blue solution before being seeded at a density of 1.25×10^3 cells per well of a 96 well plate in DMEM containing 2.5% charcoal stripped serum, 1 mM glutamine and non-essential amino acids at 37° C. in 7.5% CO2 and allowed to settle for 4 hours.
Following adhesion to the plate, the cells are treated with or without EGF (final concentration of 1 ng/ml) and with or without compound at a range of concentrations in dimethylsulfoxide (DMSO) (0.1% final) before incubation for 4 days. Following the incubation period, cell numbers were determined by addition of 50 μl of 3-(4,5-Dimethylthiazol-2-yl)-2,5-diphenyltetrazolium bromide (MTT) (stock 5 mg/ml) for 2 hours. MTT solution was then tipped off, the plate gently tapped dry and the cells dissolved upon the addition of 100 μl of DMSO.
Absorbance of the solubilised cells was read at 540 nm using a Molecular Devices ThermoMax microplate reader. Inhibition of proliferation was expressed as an IC50 value. […] The range of proliferation was calculated from the positive (vehicle plus EGF) and negative (vehicle minus EGF) control values.

T1 sequence (P00533 669-1210 limits assumed): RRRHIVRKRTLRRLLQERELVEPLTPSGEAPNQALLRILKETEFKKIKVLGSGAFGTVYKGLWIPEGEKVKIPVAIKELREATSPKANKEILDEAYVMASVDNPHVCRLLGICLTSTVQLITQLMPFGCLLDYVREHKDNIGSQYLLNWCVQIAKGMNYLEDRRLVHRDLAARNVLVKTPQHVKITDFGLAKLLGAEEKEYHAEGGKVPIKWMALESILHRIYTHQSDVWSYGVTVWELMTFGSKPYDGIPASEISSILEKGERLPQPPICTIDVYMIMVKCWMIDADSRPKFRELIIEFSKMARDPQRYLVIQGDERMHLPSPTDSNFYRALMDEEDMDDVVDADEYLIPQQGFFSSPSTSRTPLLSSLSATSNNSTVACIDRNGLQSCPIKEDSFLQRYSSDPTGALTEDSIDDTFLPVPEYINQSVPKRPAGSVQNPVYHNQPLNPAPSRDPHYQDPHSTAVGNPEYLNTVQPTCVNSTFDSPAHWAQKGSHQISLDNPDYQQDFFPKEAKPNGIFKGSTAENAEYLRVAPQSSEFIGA

| Structure (SMILES) | melting point [°C] | IC50 (EGFR tyrosine kinase) [nM] | IC50 (KB cells) [nM] |
| --- | --- | --- | --- |
| COc1cc2c(Nc3ccc(F)c(Cl)c3)ncnc2cc1OC1CCN(C(=O)[C@@H](C)O)CC1 (hydrate or solvate) [Example 23, (2R)-1-[4-({4-[3-Chloro-4-fluoroanilino]-6methoxyquinazolin-7-yl}oxy)piperidin-1-yl]-1-oxopropan-2-ol] | 143.6 | – | – |
| COCCOCC(=O)N1CCC(Oc2cc3ncnc(Nc4cccc(Cl)c4F)c3cc2OC)CC1 [Example 2, N-(3-Chloro-2-fluorophenyl)-6-methoxy-7-({1-[(2-methoxyethoxy)acetyl]piperidin-4-yl}oxy)quinazolin-4-amine] | 110 to 111 | 76 | 112 |
| COc1cc2c(Nc3cccc(Cl)c3F)ncnc2cc1OC1CCN(C(=O)[C@@H](C)O)CC1 [Example 9, (2R)-1-[4-({4-[3-Chloro-2-fluoroanilino]-6-methoxyquinazolin-7-yl}oxy)piperidin-1-yl]-1-oxopropan-2-ol] | 189 to 189.5 | – | – |
| COc1cc2c(Nc3cccc(Cl)c3F)ncnc2cc1OC1CCN(C(=O)CCO)CC1 [4[4], 3-[4-({4-[3-Chloro-2-fluoroanilino]-6-methoxyquinazolin-7-yl}oxy)piperidin-1-yl]-3-oxopropan-1-ol] | – | 52 | 109 |
| COCCC(=O)N1CCC(Oc2cc3ncnc(Nc4cccc(Cl)c4F)c3cc2OC)CC1 [4[3], N-(3-Chloro-2-fluorophenyl)-6-methoxy-7-{[1-(3-methoxypropanoyl)piperidin-4-yl]oxy}quinazolin-4-amine] | – | 65 | 84 |
| COc1cc2c(Nc3ccc(Cl)cc3F)ncnc2cc1OC1CCN(C(=O)[C@H](C)O)CC1 (hydrate or solvate) [Example 32] | 149 | – | – |
| COCC(=O)N1CCC(Oc2cc3ncnc(Nc4cccc(Cl)c4F)c3cc2OC)CC1 [Example 3, N-(3-Chloro-2-fluorophenyl)-6methoxy-7-{[1-(methoxyacetyl)piperidin-4-yl]oxy}quinazolin-4-amine] | – | 41 | 55 |
| COc1cc2c(Nc3cccc(Cl)c3F)ncnc2cc1O[C@H]1CCCN(C(=O)CN2CCN(C)CC2)C1 [Example 7, N-(3-Chloro-2-fluorophenyl)-6-methoxy-7-({(3S)-1-[(4-methylpiperazin-1-yl)acetyl]piperidin-3-yl}oxy)quinazolin-4-amine] | 120 to 121 | – | – |
| COc1cc2c(Nc3cccc(Cl)c3F)ncnc2cc1OC1CCN(C(=O)[C@H](C)O)CC1 [Example 4[5], (2S)-1-[4-({4-[3-chloro-2-fluoroanilino]-6-methoxyquinazolin-7-yl}oxy)piperidin-1-yl]-1-oxopropan-2-ol] | 107 to 111 | – | – |
| COc1cc2c(Nc3cccc(Cl)c3F)ncnc2cc1OC1CCN(C(=O)[C@@H]2CCCN2C)CC1 (hydrate or solvate) [Example 34, N-(3-chloro-2-fluorophenyl)-6-methoxy-7-{[1-(1-methyl-L-prolyl)piperidin-4-yl]oxy}quinazolin-4-amine] | 193 | – | – |
| COc1cc2c(Nc3ccc(Cl)cc3F)ncnc2cc1OC1CCN(C(=O)[C@@H](C)O)CC1 (hydrate or solvate) [Example 33, (2R)-1-[4-({4-[4-chloro-2-fluoroanilino]-6-methoxyquinazolin-7-yl}oxy)piperidin-1-yl]-1-oxopropan-2-ol] | 118 | – | – |
| COc1cc2c(Nc3cccc(Cl)c3F)ncnc2cc1OC1CCN(C(=O)CO)CC1 [4[1], 2-[4-({4-[3-Chloro-2-fluoroanilino]-6-methoxyquinazolin-7-yl}oxy)piperidin-1-yl]-2-oxoethanol] | – | 30 | 37 |
